pIC50: −log10 of the molar value.

Chain of ACL (P53396 other isoform, or with tags, fused parts or gaps isoform P53396-2): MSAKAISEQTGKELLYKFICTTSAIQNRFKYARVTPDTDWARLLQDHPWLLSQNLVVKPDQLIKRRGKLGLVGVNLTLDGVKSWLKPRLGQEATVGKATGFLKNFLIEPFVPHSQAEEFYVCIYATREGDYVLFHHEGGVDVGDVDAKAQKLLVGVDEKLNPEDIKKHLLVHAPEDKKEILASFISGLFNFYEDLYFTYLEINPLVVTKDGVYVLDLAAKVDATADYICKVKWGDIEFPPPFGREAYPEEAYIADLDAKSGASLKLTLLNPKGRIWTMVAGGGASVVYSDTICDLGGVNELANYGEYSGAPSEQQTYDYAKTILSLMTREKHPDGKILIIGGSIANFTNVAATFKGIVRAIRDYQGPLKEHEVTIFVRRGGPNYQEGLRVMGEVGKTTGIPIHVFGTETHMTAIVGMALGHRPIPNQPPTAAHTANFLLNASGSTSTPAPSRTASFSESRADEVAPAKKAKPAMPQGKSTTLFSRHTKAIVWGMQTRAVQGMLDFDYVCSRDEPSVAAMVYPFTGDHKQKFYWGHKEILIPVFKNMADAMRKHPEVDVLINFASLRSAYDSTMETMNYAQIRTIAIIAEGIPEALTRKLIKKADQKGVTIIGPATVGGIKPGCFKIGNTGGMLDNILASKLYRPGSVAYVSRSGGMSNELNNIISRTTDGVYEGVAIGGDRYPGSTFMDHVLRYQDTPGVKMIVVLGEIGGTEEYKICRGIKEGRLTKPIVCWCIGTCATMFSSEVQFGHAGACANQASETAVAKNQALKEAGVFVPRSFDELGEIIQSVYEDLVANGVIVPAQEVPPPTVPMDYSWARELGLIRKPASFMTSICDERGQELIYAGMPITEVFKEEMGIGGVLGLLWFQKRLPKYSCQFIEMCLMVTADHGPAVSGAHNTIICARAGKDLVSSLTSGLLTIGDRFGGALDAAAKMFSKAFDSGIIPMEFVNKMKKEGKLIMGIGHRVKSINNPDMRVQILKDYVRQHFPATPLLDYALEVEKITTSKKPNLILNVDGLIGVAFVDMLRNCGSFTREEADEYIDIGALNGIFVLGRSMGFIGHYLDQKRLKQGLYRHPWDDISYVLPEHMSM

This test concerns the target ACL (Homo sapiens (Human), UniProt P53396). Kind of test: ADP-Glo Assay.
As usually defined, the pIC50 is −log10 of the IC50, conventionally taken in molar units. Read a low pIC50 as a high IC50. In the case of `O=C(Cc1cc(Cl)cc(Cl)c1)Nc1cc(-c2ccccc2)ccc1C(=O)O` [I-280, 3-(2-(3,5-dichlorophenyl)acetamido)-[1,1′-biphenyl]-4-carboxylic Acid], the pIC50 was 4.70 to 6.30.
On to `O=S(=O)(Nc1cc(-c2ccccc2)c(F)cc1F)c1cccc2c1OCCO2` [I-383, N-[4,6-difluoro-[1,1-biphenyl]-3-yl]-2,3-dihydro-1,4-benzodioxine-5-sulfonamide], for which the pIC50 is less than 4.70.
Regarding `O=S(=O)(NCc1nc(-c2cccc(F)c2)no1)c1cc(Cl)cc(Cl)c1O` [I-168], the negative logarithm of the IC50 (pIC50) was 4.70 to 6.30.
On to `COC(=O)c1ccnc(NS(=O)(=O)c2cc(Cl)cc(Cl)c2O)c1` [I-525, methyl 2-((3,5-dichloro-2-hydroxyphenyl)sulfonamido)isonicotinate], for which the pIC50 is less than 4.70.
For the compound `NC(=O)COc1c(Cl)cc(Cl)cc1S(=O)(=O)Nc1cc(-c2ccccc2)ccc1F` [I-151, 2-(2,4-dichloro-6-(N-(4-fluoro-[1,1′-biphenyl]-3-yl)sulfamoyl)phenoxy)acetamide], the pIC50 was 4.70 to 6.30.
`COc1ccc(-c2ccccc2)cc1NS(=O)(=O)c1cc(C(=O)N(C)C)cc(Cl)c1OC` [I-434, 3-chloro-4-methoxy-5-(N-(4-methoxy-[1,1′-biphenyl]-3-yl)sulfamoyl)-N,N-dimethylbenzamide] had a pIC50 of less than 4.70.
`O=S(=O)(Nc1cc(F)ccc1F)c1cc(Cl)cc(Cl)c1O` [I-69, 3,5-dichloro-N-(2,5-difluorophenyl)-2-hydroxybenzene-1-sulfonamide]: the pIC50 is 4.70 to 6.30.
Turning to `O=C(O)COc1c(Cl)cc(C(=O)N2CCC2)cc1S(=O)(=O)Nc1cc(-c2ccccc2)c(F)cc1F` [I-199, 2-[4-(azetidine-1-carbonyl)-2-chloro-6-([4,6-difluoro-[1,1-biphenyl]-3-yl]sulfamoyl)phenoxy]acetic Acid], the pIC50 is 4.70 to 6.30.
Regarding `O=S(=O)(N[C@H]1C[C@H](c2ccc(F)cc2)C1)c1cc(Cl)cc(Cl)c1O` [I-167], the pIC50 is 4.70 to 6.30.
In turn, `COC(=O)c1cc(Cl)c(OCC(=O)O)c(S(=O)(=O)Nc2cc(-c3ccccc3)ccc2F)c1` [I-114, 2-[2-chloro-6-([4-fluoro-[1,1-biphenyl]-3-yl]sulfamoyl)-4-(methoxycarbonyl)phenoxy]acetic Acid] had a pIC50 of 4.70 to 6.30.
`O=C(O)c1cc(Cl)cc(S(=O)(=O)Nc2cc(-c3ccccc3)c(F)cc2F)c1` [I-147, 3-chloro-5-(N-(4,6-difluoro-[1,1′-biphenyl]-3-yl)sulfamoyl)benzoic Acid] showed a pIC50 of 4.70 to 6.30.
Compound `O=C(O)c1ccc(C(F)(F)F)cc1NS(=O)(=O)c1cc(Cl)cc(Cl)c1` [I-324, 2-((3,5-dichlorophenyl)sulfonamido)-4-(trifluoromethyl)benzoic Acid] had a negative logarithm of the IC50 (pIC50) of 4.70 to 6.30.
Compound `COc1ccc(-c2ccccc2)cc1N(C)S(=O)(=O)c1cc(Cl)cc(Cl)c1O` [I-17, 3,5-dichloro-2-hydroxy-N-(4-methoxy-[1,1′-biphenyl]-3-yl)-N-methylbenzenesulfonamide] gave a pIC50 of 4.70 to 6.30.
As for `O=C(NO)c1ccc(F)c(NS(=O)(=O)c2cc(Cl)cc(Cl)c2O)c1` [I-45, 3-[(3,5-dichloro-2-hydroxybenzene)sulfonamido]-4-fluoro-N-hydroxybenzamide], the negative-log IC50 (pIC50) was 4.70 to 6.30.
The compound `O=C(O)c1ccc(-c2ccccc2)cc1NS(=O)(=O)c1cn[nH]c1` [I-445] gave a pIC50 of less than 4.70.
In the case of `N#Cc1cccc(S(=O)(=O)Nc2cc(-c3ccccc3)ccc2F)c1` [I-419, 3-cyano-N-(2-fluoro-5-phenylphenyl)benzene-1-sulfonamide] it was less than 4.70.
As to `COc1ccc(C)cc1S(=O)(=O)Nc1cc(-c2ccccc2)ccc1C(=O)O` [I-313, 3-((2-methoxy-5-methylphenyl)sulfonamido)-[1,1′-biphenyl]-4-carboxylic Acid], the negative-log IC50 (pIC50) was 4.70 to 6.30.
In turn, `COc1ccc(-c2ccccc2)cc1NS(=O)(=O)c1cccc(-c2nnn(C)n2)c1` [I-436, N-(2-methoxy-5-phenylphenyl)-3-(2-methyl-2H-1,2,3,4-tetrazol-5-yl)benzene-1-sulfonamide] showed a pIC50 of less than 4.70.

(Values after US11555012B2 (Nimbus Artemis, Inc., priority 2018, dated 2023).)
